Reference: publication PMC10106456 (Communications Biology, 2023)
Several values for one entry are separate records, joined by “and”; a condition that tells them apart may be missing. Identical values can stand only once. Like-named read-outs stand apart in the source and are kept apart here.

Columns and labels:
[1] = test system: E. coli DH5αZ1 + pZE24-tet(X7); experiment: Microbroth dilution antibiotic susceptibility test (MIC); assay type: cell-based; conditions: Escherichia coli, 20 h
Method: (§1) For high expression, 1 mM IPTG fully relieves repression by LacI[44] thus only IPTG was used in whole-cell tests. Chemically-competent E. coli DH5αZ1 (Expressys) was transformed with these pZE24 constructs by heat shock. Minimum inhibitory concentrations (MICs) were measured as per Clinical and Laboratory Standards Institute (CLSI) guidelines. Substrates and inhibitors were dissolved in DMSO (20 mg/mL) then diluted to working concentrations in cation-adjusted Mueller-Hinton II broth supplemented with 50 μg/mL kanamycin (Supplementary Data 2). Antibiotic susceptibility testing panels were prepared in 96-well flat-bottom microplates (Corning) by two-fold serial dilution of the antibiotic of interest (Supplementary Data 3). […] Liquid cultures of each strain were grown to exponential phase then diluted to a standard concentration (OD600 = 0.0015, which is equivalent to double ~5 × 10^5 CFU/mL) and inoculated into each panel at a 1:1 ratio. […] Each strain-antibiotic/inhibitor combination was tested in triplicate, along with no-drug and no-cell controls. Inoculated panels were sealed with Breathe-Easy membranes (Sigma-Aldrich) and incubated at 37 °C for 20 h. MICs were scored by absorbance measurements at 600 nm (OD600) using the Synergy H1 microplate reader (Biotek Instruments, Inc).

[2] = test system: E. coli DH5αZ1 + pZE24 (empty); experiment: as above; assay type: cell-based; conditions: Escherichia coli, 20 h, drug alone
Method: as §1

[3] = test system: E. coli DH5αZ1 + pZE24-tet(X6); experiment: as above; assay type: cell-based; conditions: Escherichia coli
Method: as §1

Tet(X6) = Tet(X6) (Proteus genomosp. 6, UniProt A0A6I7DAX3); conditions: for Michaelis-menten nonlinear fit, best-fit Kcat / Michaelis-menten nonlinear fit, best-fit Vmax: supplementary source data; for Michaelis-menten nonlinear fit, best-fit Vmax: Tet(X6) 0.4 µM; for Sigmoidal curve fit, best-fit Kprime / Sigmoidal curve fit, best-fit Vmax / Sigmoidal curve fit, best-fit h / Sigmoidal curve fit, best-fit Khalf: allosteric sigmoidal model, Supplementary Data 1; for Sigmoidal curve fit, best-fit Khalf: [Sub] in μM
Chain of Tet(X6) (A0A6I7DAX3 entry or part of it): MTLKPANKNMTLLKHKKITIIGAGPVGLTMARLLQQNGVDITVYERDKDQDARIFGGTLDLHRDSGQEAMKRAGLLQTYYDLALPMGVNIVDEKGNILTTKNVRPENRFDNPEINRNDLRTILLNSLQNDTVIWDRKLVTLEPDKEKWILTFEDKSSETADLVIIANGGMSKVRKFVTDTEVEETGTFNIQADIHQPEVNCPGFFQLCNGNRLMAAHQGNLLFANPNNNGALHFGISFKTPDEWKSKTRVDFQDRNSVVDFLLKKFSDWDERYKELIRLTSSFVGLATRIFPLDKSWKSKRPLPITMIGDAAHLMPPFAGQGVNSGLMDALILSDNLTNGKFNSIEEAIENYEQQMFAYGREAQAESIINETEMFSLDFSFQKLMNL
Method: All experiments were prepared open to air in non-degassed buffer solutions at room temperature. […] Initial enzyme velocities were determined by linear regression using Agilent Cary WinUV Software over the linear range of the reaction (typically between 0 to 1 min), plotted against the concentration of the substrate, and fitted to the Michaelis–Menten or allosteric sigmoidal nonlinear regression equations using GraphPad Prism 6.

[4] = test system: Cc1c2c(c(O)c3c(O)cccc13)C(=O)[C@]1(O)C(=O)C(C(N)=O)=C(O)[C@@H](N(C)C)[C@@H]1C2; experiment: purified protein, by the assay type; conditions: other: compound as substrate of Tet(X6), Michaelis-Menten fit, pH 8.5
[5] = test system: [H][C@@]12Cc3c(N(C)C)cc(CNCC(C)(C)C)c(O)c3C(=O)C1=C(O)[C@]1(O)C(=O)C(C(N)=O)=C(O)[C@@H](N(C)C)[C@]1([H])C2; experiment: purified protein, by the assay type; conditions: pH 8.5
[6] = test system: CN(C)[C@@H]1C(O)=C(C(N)=O)C(=O)[C@@]2(O)C(O)=C3C(=O)c4c(O)c(NC(=O)CN5CCCC5)cc(F)c4C[C@H]3C[C@@H]12; experiment: purified protein, by the assay type; conditions: pH 8.5
[7] = test system: CN(C)[C@@H]1C(O)=C(C(N)=O)C(=O)[C@@]2(O)C(O)=C3C(=O)c4c(O)cccc4[C@@](C)(O)[C@H]3C[C@@H]12; experiment: purified protein, by the assay type; conditions: other: compound as substrate of Tet(X6), Michaelis-Menten fit, pH 8.5
[8] = test system: CN(C)c1cc(NC(=O)CNC(C)(C)C)c(O)c2c1C[C@H]1C[C@H]3[C@H](N(C)C)C(O)=C(C(N)=O)C(=O)[C@@]3(O)C(O)=C1C2=O; experiment: purified protein, by the assay type; conditions: pH 8.5
Tet(X2) = conditions: surface-localized single point mutation; cited from earlier work
[9] = [Sub] 1.96581 μM, trials 1-3, absorbance 400 nm
[10] = [Sub] 3.93162 μM, trials 1-3, absorbance 400 nm
[11] = [Sub] 5.89744 μM, trials 1-3, absorbance 400 nm
[12] = [Sub] 7.86325 μM, trials 1-3, absorbance 400 nm
[13] = [Sub] 9.82906 μM, trials 1-3, absorbance 400 nm
[14] = [Sub] 20.641 μM, trials 1-3, absorbance 400 nm
[15] = [Sub] 30.4701 μM, trials 1-3, absorbance 400 nm
[16] = other: compound as substrate of Tet(X6), Michaelis-Menten fit
[17] = other: supplementary source data, [Sub] in μM
[18] = [Sub] 3.8961 μM, trials 1-3, absorbance 400 nm (440 nm for aTC)
[19] = [Sub] 6.16883 μM, trials 1-3, absorbance 400 nm (440 nm for aTC)
[20] = [Sub] 8.11688 μM, trials 1-3, absorbance 400 nm (440 nm for aTC)
[21] = [Sub] 10.0649 μM, trials 1-3, absorbance 400 nm
[22] = [Sub] 29.8701 μM, trials 1-3, absorbance 400 nm (440 nm for aTC)

Q: Which MIC [1] does the source give for `CN(C)c1cc(NC(=O)CNC(C)(C)C)c(O)c2c1C[C@H]1C[C@H]3[C@H](N(C)C)C(O)=C(C(N)=O)C(=O)[C@@]3(O)C(O)=C1C2=O` [TIG, tigecycline] here?
A: 2 µg/mL

Q: And the MIC [2]?
A: 0.5 µg/mL

Q: What about the MIC ([3]; 20 h) of the same molecule?
A: 4 µg/mL

Q: And the “Slope (initial velocity of substrate degradation)” value (“Slope” for short) (Tet(X6); [9])?
A: 0.00897 and 0.01087 and 0.008562

Q: What about the “Slope” value (Tet(X6); [10]) of the same molecule?
A: 0.01529 and 0.0186 and 0.0147

Q: What about the “Slope” value (Tet(X6); [11]) of the same molecule?
A: 0.02792 and 0.01914 and 0.0183

Q: What about the “Slope” value (Tet(X6); [12]) of the same molecule?
A: 0.03155 and 0.02526 and 0.02718

Q: And the “Slope” value (Tet(X6); [13])?
A: 0.02741 and 0.02394 and 0.02598

Q: And the “Slope” value (Tet(X6); [14])?
A: 0.03075 and 0.05034 and 0.0363

Q: And the “Slope” value (Tet(X6); [15])?
A: 0.05374 and 0.04632 and 0.03822

Q: And the “Michaelis-menten nonlinear fit, best-fit Kcat” value (Tet(X6))?
A: 0.1574

Q: What about the “Michaelis-menten nonlinear fit, best-fit Vmax” value (Tet(X6)) of the same molecule?
A: 0.06296 and 0.06154

Q: With Tet(X6) (Proteus columbae) as the molecule, how does the Km [4] read?
A: 6 µM

Q: And the kcat/Km [4]?
A: 200 ± 50 M⁻¹ s⁻¹

Q: What about the Km [5, 16] of the same molecule?
A: 18 µM

Q: And the kcat [5, 16]?
A: 0.00333 ± 0.00033 s⁻¹

Q: And the kcat/Km [5, 16]?
A: 183 ± 50 M⁻¹ s⁻¹

Q: And the Km [5, 17]?
A: 18.4 µM

Q: And the Km [6, 16]?
A: 47 µM

Q: What about the kcat [6, 16] of the same molecule?
A: 0.0083 ± 0.0017 s⁻¹

Q: And the kcat/Km [6, 16]?
A: 183 ± 67 M⁻¹ s⁻¹

Q: What about the Km [6, 17] of the same molecule?
A: 46.6 µM

Q: And the kcat [7]?
A: 0.00433 ± 0.00017 s⁻¹

Q: What about the Km [8, 16] of the same molecule?
A: 12 µM

Q: And the kcat [8, 16]?
A: 0.00267 ± 0.00033 s⁻¹

Q: What about the kcat/Km [8, 16] of the same molecule?
A: 217 ± 67 M⁻¹ s⁻¹

Q: What about the Km [8, 17] of the same molecule?
A: 11.8 µM and 11.1 µM

Q: For `CN(C)[C@@H]1C(O)=C(C(N)=O)C(=O)[C@@]2(O)C(O)=C3C(=O)c4c(O)ccc(Cl)c4[C@@](C)(O)[C@H]3C[C@@H]12` [CTC, chlortetracycline], which MIC [1] is on record?
A: 32 µg/mL

Q: And the MIC [2]?
A: 2 µg/mL

Q: And the MIC [3]?
A: 128 µg/mL

Q: What does the source list for `CN(C)[C@@H]1C(O)=C(C(N)=O)C(=O)[C@@]2(O)C(O)=C3C(=O)c4c(O)cccc4[C@@](C)(O)[C@H]3C[C@@H]12` [TET, tetracycline]?
A: MIC [1]: 32 µg/mL; MIC [2]: 1 µg/mL; Slope (initial velocity of substrate degradation) (Tet(X6); [9]): 0.0375 and 0.04014 and 0.02364; Slope (initial velocity of substrate degradation) (Tet(X6); [10]): 0.04215 and 0.04584 and 0.0387; Slope (initial velocity of substrate degradation) (Tet(X6); [11]): 0.05933 and 0.04704 and 0.05922; Slope (initial velocity of substrate degradation) (Tet(X6); [12]): 0.06246 and 0.0528 and 0.05754; Slope (initial velocity of substrate degradation) (Tet(X6); [13]): 0.05855 and 0.06072 and 0.05694; Slope (initial velocity of substrate degradation) (Tet(X6); [14]): 0.07878 and 0.08328 and 0.07938; Slope (initial velocity of substrate degradation) (Tet(X6); [15]): 0.0879 and 0.09378 and 0.09744; Michaelis-menten nonlinear fit, best-fit Kcat (Tet(X6)): 0.2636; Michaelis-menten nonlinear fit, best-fit Vmax (Tet(X6)): 0.1054 and 0.1047

Q: With `CN(C)c1cc(CNCC(C)(C)C)c(O)c2c1C[C@H]1C[C@H]3[C@H](N(C)C)C(O)=C(C(N)=O)C(=O)[C@@]3(O)C(O)=C1C2=O` [OMA, omadacycline] as the molecule, how does the MIC [1] read?
A: 16 µg/mL

Q: And the MIC [2]?
A: 2 µg/mL

Q: What about the MIC ([3]; 20 h) of the same molecule?
A: 64 µg/mL

Q: And the “Slope” value (Tet(X6); [Sub] 1.94805 μM, trials 1-3, absorbance 400 nm (440 nm for aTC))?
A: 0.0061 and 0.0058 and 0.0045

Q: And the “Slope” value (Tet(X6); [18])?
A: 0.0076

Q: And the “Slope” value (Tet(X6); [19])?
A: 0.0203 and 0.0178 and 0.0171

Q: What about the “Slope” value (Tet(X6); [20]) of the same molecule?
A: 0.0286 and 0.0269 and 0.0241

Q: And the “Slope” value (Tet(X6); [21])?
A: 0.0336 and 0.0293 and 0.0307

Q: What about the “Slope” value (Tet(X6); [22]) of the same molecule?
A: 0.0474 and 0.044 and 0.0515

Q: What about the “Sigmoidal curve fit, best-fit Kprime” value (Tet(X6)) of the same molecule?
A: 61.85

Q: And the “Sigmoidal curve fit, best-fit Vmax” value (Tet(X6))?
A: 0.05144

Q: And the “Sigmoidal curve fit, best-fit h” value (Tet(X6))?
A: 1.97

Q: And the “Sigmoidal curve fit, best-fit Khalf” value (Tet(X6))?
A: 8.114

Q: What about the “Michaelis-menten nonlinear fit, best-fit Kcat” value (Tet(X6)) of the same molecule?
A: 0.1969

Q: What about the “Michaelis-menten nonlinear fit, best-fit Vmax” value (Tet(X6)) of the same molecule?
A: 0.07875

Q: For `C[C@H]1c2cccc(O)c2C(=O)C2=C(O)[C@]3(O)C(=O)C(C(N)=O)=C(O)[C@@H](N(C)C)[C@@H]3[C@@H](O)[C@@H]21` [DOX, doxycycline], which MIC [1] is on record?
A: 16 µg/mL

Q: And the MIC [2]?
A: 1 µg/mL

Q: What about the MIC ([3]; 20 h) of the same molecule?
A: 32 µg/mL

Q: Which “reduction of apparent Km by point mutation Thr280Ala in Tet(X2)” value (Tet(X2)) does the source give for `CN(C)c1ccc(O)c2c1C[C@H]1C[C@H]3[C@H](N(C)C)C(O)=C(C(N)=O)C(=O)[C@@]3(O)C(O)=C1C2=O` [minocycline] here?
A: two-fold

Q: For `CN(C)[C@@H]1C(O)=C(C(N)=O)C(=O)[C@@]2(O)C(O)=C3C(=O)c4c(O)c(NC(=O)CN5CCCC5)cc(F)c4C[C@H]3C[C@@H]12` [ERA, eravacycline], which MIC [1] is on record?
A: 4 µg/mL

Q: And the MIC [2]?
A: 0.25 µg/mL

Q: And the MIC ([3]; 20 h)?
A: 8 µg/mL

Q: And the “Slope” value (Tet(X6); [18])?
A: 0.0062 and 0.0046 and 0.0039

Q: And the “Slope” value (Tet(X6); [19])?
A: 0.0169 and 0.0106 and 0.0133

Q: And the “Slope” value (Tet(X6); [20])?
A: 0.0312 and 0.0317 and 0.0293

Q: And the “Slope” value (Tet(X6); [21])?
A: 0.0442 and 0.0406 and 0.047

Q: And the “Slope” value (Tet(X6); [Sub] 20.1299 μM, trials 1-3, absorbance 400 nm (440 nm for aTC))?
A: 0.0511 and 0.0571 and 0.0722

Q: What about the “Slope” value (Tet(X6); [22]) of the same molecule?
A: 0.0798 and 0.0764 and 0.0969

Q: What about the “Slope” value (Tet(X6); [Sub] 64.9351 μM, trials 1-2, absorbance 400 nm) of the same molecule?
A: 0.1162 and 0.1096

Q: What about the “Sigmoidal curve fit, best-fit Kprime” value (Tet(X6)) of the same molecule?
A: 84.21

Q: And the “Sigmoidal curve fit, best-fit Vmax” value (Tet(X6))?
A: 0.1315

Q: And the “Sigmoidal curve fit, best-fit h” value (Tet(X6))?
A: 1.474

Q: And the “Sigmoidal curve fit, best-fit Khalf” value (Tet(X6))?
A: 20.22

Q: And the “Michaelis-menten nonlinear fit, best-fit Kcat” value (Tet(X6))?
A: 0.5027

Q: And the “Michaelis-menten nonlinear fit, best-fit Vmax” value (Tet(X6))?
A: 0.2011
